Measurements reported in patent US20140342379A1, “Means and Methods for Assessing Gonadal Toxicity” (BASF SE, priority 2011, published 2014).
Marks after values point to notes of the source that are not given here.

Test system: female rats
Experiment: 28-day repeated dose study, plasma metabolite profiling (GC-MS, LC-MS), female rats

In the case of CC#C[C@]1(O)CC[C@H]2[C@@H]3CCC4=CC(=O)CCC4=C3[C@@H](c3ccc(N(C)C)cc3)C[C@@]21C [Mifepristone, (11b,17b)-11-[4-(Dimethylamino)phenyl]-17-hydroxy-17-(1-propynyl)estra-4,9-dien-3-one], the “3-Methoxytyrosine, plasma, treatment ratio versus control” value (day 7) is reported as 1.09, the “Arachidonic acid (C20:cis[5,8,11,14]4), plasma, treatment ratio versus control” value (day 7) is reported as 0.64* and the “Campesterol, plasma, treatment ratio versus control” value (day 7) is reported as 0.61*. For the same molecule, the “Cholesterol, plasma, treatment ratio versus control” value (day 7) was 0.65*, the “Choline plasmalogen No 03, plasma, treatment ratio versus control” value (day 7) was 0.89* and the “Citrate, plasma, treatment ratio versus control” value (day 7) was 0.83*. For the same molecule, the “Docosahexaenoic acid (C22:cis[4,7,10,13,16,19]6), plasma, treatment ratio versus control” value (day 7) was 0.73*, the “Docosapentaenoic acid (C22:cis[7,10,13,16,19]5), plasma, treatment ratio versus control” value (day 7) was 0.67 and the “Dodecanol, plasma, treatment ratio versus control” value (day 7) was 0.59*. For the same molecule, the “Elaidic acid (C18:trans[9]1), plasma, treatment ratio versus control” value (“Elaidic acid … treatment ratio versus control” below) (day 7) was 0.74*, the “Glycerol phosphate, lipid fraction, plasma, treatment ratio versus control” value (day 7) was 0.52* and the “Lysophosphatidylcholine (C20:4), plasma, treatment ratio versus control” value (day 7) was 0.93. For the same molecule, the “Metanephrine, plasma, treatment ratio versus control” value (day 7) was 0.9, the “Phosphatidylcholine (C18:0,C18:1), plasma, treatment ratio versus control” value (day 7) was 0.85 and the “Phosphatidylcholine (C18:0,C22:6), plasma, treatment ratio versus control” value (day 7) was 0.87*. The “Phosphatidylcholine No 04, plasma, treatment ratio versus control” value (day 7) was 0.67*, the “Progesterone, plasma, treatment ratio versus control” value (day 7) was 0.67 and the “alpha-Tocopherol, plasma, treatment ratio versus control” value (day 7) was 0.75. For the same molecule, the “gamma-Linolenic acid (C18:cis[6,9,12]3), plasma, treatment ratio versus control” value (day 7) was 0.76, the “myo-Inositol, lipid fraction, plasma, treatment ratio versus control” value (day 7) was 0.63* and the “threo-Sphingosine, plasma, treatment ratio versus control” value (day 7) was 0.56*. The “3-Methoxytyrosine, plasma, treatment ratio versus control” value (day 14) was 1, the “Arachidonic acid (C20:cis[5,8,11,14]4), plasma, treatment ratio versus control” value (day 14) was 0.71* and the “Campesterol, plasma, treatment ratio versus control” value (day 14) was 0.66*. The “Cholesterol, plasma, treatment ratio versus control” value (day 14) was 0.72*, the “Choline plasmalogen No 03, plasma, treatment ratio versus control” value (day 14) was 0.77* and the “Citrate, plasma, treatment ratio versus control” value (day 14) was 0.94. For the same molecule, the “Docosahexaenoic acid (C22:cis[4,7,10,13,16,19]6), plasma, treatment ratio versus control” value (day 14) was 0.78*, the “Docosapentaenoic acid (C22:cis[7,10,13,16,19]5), plasma, treatment ratio versus control” value (day 14) was 0.97 and the “Dodecanol, plasma, treatment ratio versus control” value (day 14) was 0.84*. The “Elaidic acid … treatment ratio versus control” value (day 14) was 0.71*, the “Glycerol phosphate, lipid fraction, plasma, treatment ratio versus control” value (day 14) was 0.76 and the “Lysophosphatidylcholine (C20:4), plasma, treatment ratio versus control” value (day 14) was 0.93. For the same molecule, the “Metanephrine, plasma, treatment ratio versus control” value (day 14) was 0.61, the “Phosphatidylcholine (C18:0,C18:1), plasma, treatment ratio versus control” value (day 14) was 0.8* and the “Phosphatidylcholine (C18:0,C22:6), plasma, treatment ratio versus control” value (day 14) was 0.9. The “Phosphatidylcholine No 04, plasma, treatment ratio versus control” value (day 14) was 0.8*, the “Progesterone, plasma, treatment ratio versus control” value (day 14) was 0.45* and the “alpha-Tocopherol, plasma, treatment ratio versus control” value (day 14) was 0.76*. For the same molecule, the “gamma-Linolenic acid (C18:cis[6,9,12]3), plasma, treatment ratio versus control” value (day 14) was 0.69, the “myo-Inositol, lipid fraction, plasma, treatment ratio versus control” value (day 14) was 0.77* and the “threo-Sphingosine, plasma, treatment ratio versus control” value (day 14) was 0.79. For the same molecule, the “3-Methoxytyrosine, plasma, treatment ratio versus control” value (day 28) was 1.09, the “Arachidonic acid (C20:cis[5,8,11,14]4), plasma, treatment ratio versus control” value (day 28) was 0.78 and the “Campesterol, plasma, treatment ratio versus control” value (day 28) was 0.83. For the same molecule, the “Cholesterol, plasma, treatment ratio versus control” value (day 28) was 0.76, the “Choline plasmalogen No 03, plasma, treatment ratio versus control” value (day 28) was 0.74* and the “Citrate, plasma, treatment ratio versus control” value (day 28) was 0.89*. The “Docosahexaenoic acid (C22:cis[4,7,10,13,16,19]6), plasma, treatment ratio versus control” value (day 28) was 0.75*, the “Docosapentaenoic acid (C22:cis[7,10,13,16,19]5), plasma, treatment ratio versus control” value (day 28) was 1 and the “Dodecanol, plasma, treatment ratio versus control” value (day 28) was 0.86. For the same molecule, the “Elaidic acid … treatment ratio versus control” value (day 28) was 0.79, the “Glycerol phosphate, lipid fraction, plasma, treatment ratio versus control” value (day 28) was 0.79 and the “Lysophosphatidylcholine (C20:4), plasma, treatment ratio versus control” value (day 28) was 0.87*. The “Metanephrine, plasma, treatment ratio versus control” value (day 28) was 0.81, the “Phosphatidylcholine (C18:0,C18:1), plasma, treatment ratio versus control” value (day 28) was 0.7* and the “Phosphatidylcholine (C18:0,C22:6), plasma, treatment ratio versus control” value (day 28) was 0.99. The “Phosphatidylcholine No 04, plasma, treatment ratio versus control” value (day 28) was 0.69*, the “Progesterone, plasma, treatment ratio versus control” value (day 28) was 0.38* and the “alpha-Tocopherol, plasma, treatment ratio versus control” value (day 28) was 0.61*. For the same molecule, the “gamma-Linolenic acid (C18:cis[6,9,12]3), plasma, treatment ratio versus control” value (day 28) was 0.73*, the “myo-Inositol, lipid fraction, plasma, treatment ratio versus control” value (day 28) was 0.86 and the “threo-Sphingosine, plasma, treatment ratio versus control” value (day 28) was 0.79.
